Measured values as given in patent US9422338B2 (EpoDose LLC, priority 2011, dated 2016).
pIC50, pKi: −log10 of the molar value.

Molecular target: T1, EPOR (erythropoietin receptor), human recombinant, NSO cells (Homo sapiens, UniProt P19235)
T1 construct: host or cells: NSO cells
T1 sequence (P19235 25-250 limits assumed): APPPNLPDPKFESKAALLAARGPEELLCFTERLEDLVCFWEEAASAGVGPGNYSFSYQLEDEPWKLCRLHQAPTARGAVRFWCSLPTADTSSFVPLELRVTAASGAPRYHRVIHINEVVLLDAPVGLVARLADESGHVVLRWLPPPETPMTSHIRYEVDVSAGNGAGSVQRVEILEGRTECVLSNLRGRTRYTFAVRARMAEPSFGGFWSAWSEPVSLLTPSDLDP
Experiment: EPOR radioligand binding assay ([125I] Erythropoietin competition)
Procedure: IC50 values were determined by a non-linear, least squares regression analysis using MATHIQ™ (computer software for integrating mathematical functions into new or existing software). […] Where presented, the Hill coefficient (nH), defining the slope of the competitive binding curve, was calculated using MATHIQ™.

[1] = Example 1, mimetics varied in N-end, loop and mid sequences
[2] = Example 2, mimetics varied in loop, mid and C-end

For `CSCC[C@@H]1NC(=O)[C@H](CCCNC(=N)N)NC(=O)C(NC(=O)[C@H](CC(C)C)NC(=O)[C@H](Cc2ccc(O)cc2)NC(=O)[C@H](CC(N)=O)NC(C)=O)CCOCC(C(=O)N[C@@H](CCCNC(=N)N)C(=O)N2CCC[C@H]2C(=O)NCCCCC(=O)NCCCCC(NC(=O)[C@@H]2CCCN2C(=O)[C@H](CCCNC(=N)N)NC(=O)C2COCCC(NC(=O)[C@H](CC(C)C)NC(=O)[C@H](Cc3ccc(O)cc3)NC(=O)[C@H](CC(N)=O)NC(C)=O)C(=O)N[C@@H](CCCNC(=N)N)C(=O)N[C@@H](CCSC)C(=O)NCC(=O)N[C@@H](Cc3c[nH]c4ccccc34)C(=O)N[C@@H](C(C)C)C(=O)N2)C(N)=O)NC(=O)[C@H](C(C)C)NC(=O)[C@H](Cc2c[nH]c3ccccc23)NC(=O)CNC1=O` (stereo partly shown) [AC-0005-020], the pKi [1] was 7.36 and the pIC50 (Example 4, fourth table) was 7.03.

In the case of `CSCC[C@@H]1NC(=O)[C@H](CCCNC(=N)N)NC(=O)C(NC(=O)[C@H](CC(C)C)NC(=O)[C@H](Cc2ccc(O)cc2)NC(=O)[C@H](CC(N)=O)NC(C)=O)CCOCC(C(=O)N[C@@H](CCCCNC(=N)N)C(=O)N2CCC[C@H]2C(=O)NCCCCC(=O)NCCCCC(NC(=O)[C@@H]2CCCN2C(=O)[C@H](CCCCNC(=N)N)NC(=O)C2COCCC(NC(=O)[C@H](CC(C)C)NC(=O)[C@H](Cc3ccc(O)cc3)NC(=O)[C@H](CC(N)=O)NC(C)=O)C(=O)N[C@@H](CCCNC(=N)N)C(=O)N[C@@H](CCSC)C(=O)NCC(=O)N[C@@H](Cc3c[nH]c4ccccc34)C(=O)N[C@@H](C(C)C)C(=O)N2)C(N)=O)NC(=O)[C@H](C(C)C)NC(=O)[C@H](Cc2c[nH]c3ccccc23)NC(=O)CNC1=O` (stereo partly shown) [AC-0005-021], the pKi [1] was 7.92 and the pIC50 (Example 4, fourth table) was 7.60.

With `CSCC[C@@H]1NC(=O)[C@H](CCCNC(=N)N)NC(=O)C(NC(=O)[C@H](CC(C)C)NC(=O)[C@H](Cc2ccc(O)cc2)NC(=O)[C@H](CC(N)=O)NC(C)=O)CCOCC(C(=O)N[C@@H](CCCCN)C(=O)N2CCC[C@H]2C(=O)NCCCCC(=O)NCCCCC(NC(=O)[C@@H]2CCCN2C(=O)[C@H](CCCCN)NC(=O)C2COCCC(NC(=O)[C@H](CC(C)C)NC(=O)[C@H](Cc3ccc(O)cc3)NC(=O)[C@H](CC(N)=O)NC(C)=O)C(=O)N[C@@H](CCCNC(=N)N)C(=O)N[C@@H](CCSC)C(=O)N[C@@H](Cc3ccccc3)C(=O)N[C@@H](Cc3c[nH]c4ccccc34)C(=O)N[C@@H](C(C)C)C(=O)N2)C(N)=O)NC(=O)[C@H](C(C)C)NC(=O)[C@H](Cc2c[nH]c3ccccc23)NC(=O)[C@H](Cc2ccccc2)NC1=O` (stereo partly shown) [AC-0005-022] the pKi [1] was 7.77 and the pIC50 (Example 4, fourth table) was 7.44.

For `CSCC[C@@H]1NC(=O)[C@H](CCCNC(=N)N)NC(=O)C(NC(=O)[C@H](CC(C)C)NC(=O)[C@H](Cc2ccc(O)cc2)NC(=O)[C@H](CC(N)=O)NC(C)=O)CCOCC(C(=O)N[C@@H](CCCCN)C(=O)N2CCC[C@H]2C(=O)NCCCCC(=O)NCCCCC(NC(=O)[C@@H]2CCCN2C(=O)[C@H](CCCCN)NC(=O)C2COCCC(NC(=O)[C@H](CC(C)C)NC(=O)[C@H](Cc3ccc(O)cc3)NC(=O)[C@H](CC(N)=O)NC(C)=O)C(=O)N[C@@H](CCCNC(=N)N)C(=O)N[C@@H](CCSC)C(=O)N[C@@H](CCc3ccccc3)C(=O)N[C@@H](Cc3c[nH]c4ccccc34)C(=O)N[C@@H](C(C)C)C(=O)N2)C(N)=O)NC(=O)[C@H](C(C)C)NC(=O)[C@H](Cc2c[nH]c3ccccc23)NC(=O)[C@H](CCc2ccccc2)NC1=O` (stereo partly shown) [AC-0005-023], the pKi [1] was 7.77 and the pIC50 (Example 4, fourth table) was 7.46.

`CSCC[C@@H]1NC(=O)[C@H](CCCNC(=N)N)NC(=O)C(NC(=O)[C@H](CC(C)C)NC(=O)[C@H](Cc2ccc(O)cc2)NC(=O)[C@H](CC(N)=O)NC(C)=O)CCOCC(C(=O)N[C@@H](CCCCN)C(=O)N2CCC[C@H]2C(=O)NCCCCC(=O)NCCCCC(NC(=O)[C@@H]2CCCN2C(=O)[C@H](CCCCN)NC(=O)C2COCCC(NC(=O)[C@H](CC(C)C)NC(=O)[C@H](Cc3ccc(O)cc3)NC(=O)[C@H](CC(N)=O)NC(C)=O)C(=O)N[C@@H](CCCNC(=N)N)C(=O)N[C@@H](CCSC)C(=O)N[C@@H](CC(C)C)C(=O)N[C@@H](Cc3c[nH]c4ccccc34)C(=O)N[C@@H](C(C)C)C(=O)N2)C(N)=O)NC(=O)[C@H](C(C)C)NC(=O)[C@H](Cc2c[nH]c3ccccc23)NC(=O)[C@H](CC(C)C)NC1=O` (stereo partly shown) [AC-0005-024] showed a pKi [1] of 7.47 and a pIC50 (Example 4, fourth table) of 7.14.

`CSCC[C@@H]1NC(=O)[C@H](CCCNC(=N)N)NC(=O)C(NC(=O)[C@H](CC(C)C)NC(=O)[C@H](Cc2ccc(O)cc2)NC(=O)[C@H](CC(N)=O)NC(C)=O)CCOCC(C(=O)N[C@@H](CCCCN)C(=O)N2CCC[C@H]2C(=O)NCCCCC(=O)NCCCCC(NC(=O)[C@@H]2CCCN2C(=O)[C@H](CCCCN)NC(=O)C2COCCC(NC(=O)[C@H](CC(C)C)NC(=O)[C@H](Cc3ccc(O)cc3)NC(=O)[C@H](CC(N)=O)NC(C)=O)C(=O)N[C@@H](CCCNC(=N)N)C(=O)N[C@@H](CCSC)C(=O)N3CCC[C@H]3C(=O)N[C@@H](Cc3c[nH]c4ccccc34)C(=O)N[C@@H](C(C)C)C(=O)N2)C(N)=O)NC(=O)[C@H](C(C)C)NC(=O)[C@H](Cc2c[nH]c3ccccc23)NC(=O)[C@@H]2CCCN2C1=O` (stereo partly shown) [AC-0005-026] was tested, and the pKi [1] was 8.23, the pKi [2] was 8.37 and the pIC50 (Example 3) was 7.87. It also gave a pKi (Example 3, Cheng-Prusoff) of 8.19, a pIC50 (Example 4, fifth table) of 7.91 and a pIC50 (Example 4, fourth table) of 7.70. For the same compound, the pIC50 (Example 4, sixth table) was 8.05 and the pKi (Example 4, sixth table) was 8.37.

For `CSCC[C@@H]1NC(=O)[C@H](CCCNC(=N)N)NC(=O)C(NC(=O)[C@H](CC(C)C)NC(=O)[C@H](Cc2ccc(O)cc2)NC(=O)[C@H](CC(N)=O)NC(C)=O)CCOCC(C(=O)N[C@@H](CCCCNC(=N)N)C(=O)N2CCC[C@H]2C(=O)NCCCCC(=O)NCCCCC(NC(=O)[C@@H]2CCCN2C(=O)[C@H](CCCCNC(=N)N)NC(=O)C2COCCC(NC(=O)[C@H](CC(C)C)NC(=O)[C@H](Cc3ccc(O)cc3)NC(=O)[C@H](CC(N)=O)NC(C)=O)C(=O)N[C@@H](CCCNC(=N)N)C(=O)N[C@@H](CCSC)C(=O)N3CCC[C@H]3C(=O)N[C@@H](Cc3c[nH]c4ccccc34)C(=O)N[C@@H](C(C)C)C(=O)N2)C(N)=O)NC(=O)[C@H](C(C)C)NC(=O)[C@H](Cc2c[nH]c3ccccc23)NC(=O)[C@@H]2CCCN2C1=O` (stereo partly shown) [AC-0005-051], the pKi [1] was 8.34, the pIC50 (Example 3) was 8.00 and the pKi (Example 3, Cheng-Prusoff) was 8.32. It also gave a pIC50 (Example 4, fifth table) of 8.02.

Compound `CSCC[C@@H]1NC(=O)[C@H](CCCNC(=N)N)NC(=O)C(NC(=O)[C@H](CC(C)C)NC(=O)[C@H](Cc2ccc(O)cc2)NC(C)=O)CCOCC(C(=O)N[C@@H](CCCCNC(=N)N)C(=O)N2CCC[C@H]2C(=O)NCCCCC(=O)NCCCCC(NC(=O)[C@@H]2CCCN2C(=O)[C@H](CCCCNC(=N)N)NC(=O)C2COCCC(NC(=O)[C@H](CC(C)C)NC(=O)[C@H](Cc3ccc(O)cc3)NC(C)=O)C(=O)N[C@@H](CCCNC(=N)N)C(=O)N[C@@H](CCSC)C(=O)N3CCC[C@H]3C(=O)N[C@@H](Cc3c[nH]c4ccccc34)C(=O)N[C@@H](C(C)C)C(=O)N2)C(N)=O)NC(=O)[C@H](C(C)C)NC(=O)[C@H](Cc2c[nH]c3ccccc23)NC(=O)[C@@H]2CCCN2C1=O` (stereo partly shown) [AC-0005-052] has a pKi [1] of 7.94, a pIC50 (Example 3) of 7.61 and a pKi (Example 3, Cheng-Prusoff) of 7.94. It also gave a pIC50 (Example 4, fifth table) of 7.62.

For `CSCC[C@@H]1NC(=O)[C@H](CCCNC(=N)N)NC(=O)C(NC(=O)[C@H](CC(C)C)NCOCCCO)CCOCC(C(=O)N[C@@H](CCCCNC(=N)N)C(=O)N2CCC[C@H]2C(=O)NCCCCC(=O)NCCCCC(NC(=O)[C@@H]2CCCN2C(=O)[C@H](CCCCNC(=N)N)NC(=O)C2COCCC(NC(=O)[C@H](CC(C)C)NCOCCCO)C(=O)N[C@@H](CCCNC(=N)N)C(=O)N[C@@H](CCSC)C(=O)N3CCC[C@H]3C(=O)N[C@@H](Cc3c[nH]c4ccccc34)C(=O)N[C@@H](C(C)C)C(=O)N2)C(N)=O)NC(=O)[C@H](C(C)C)NC(=O)[C@H](Cc2c[nH]c3ccccc23)NC(=O)[C@@H]2CCCN2C1=O` (stereo partly shown) [AC-0005-053], the “NH (Hill coefficient)” value (Example 3, slope of competitive binding curve) was 1.86, the “Ki (AC-0005-002)/Ki” value (Example 4, fifth table, Ki relative to that of AC-0005-002) was 403 and the “Ki/Ki(EPO)” value (Example 4, fifth table, Ki relative to that of EPO) was 120.

For `CSCC[C@@H]1NC(=O)[C@H](Cc2c[nH]cn2)NC(=O)C(NC(=O)[C@H](CC(C)C)NC(=O)[C@H](Cc2ccc(O)cc2)NC(=O)[C@H](CC(N)=O)NC(C)=O)CCOCC(C(=O)N[C@@H](CCCCNC(=N)N)C(=O)N2CCC[C@H]2C(=O)NCCCCC(=O)NCCCCC(NC(=O)[C@@H]2CCCN2C(=O)[C@H](CCCCNC(=N)N)NC(=O)C2COCCC(NC(=O)[C@H](CC(C)C)NC(=O)[C@H](Cc3ccc(O)cc3)NC(=O)[C@H](CC(N)=O)NC(C)=O)C(=O)N[C@@H](Cc3c[nH]cn3)C(=O)N[C@@H](CCSC)C(=O)N3CCC[C@H]3C(=O)N[C@@H](Cc3c[nH]c4ccccc34)C(=O)N[C@@H](C(C)C)C(=O)N2)C(N)=O)NC(=O)[C@H](C(C)C)NC(=O)[C@H](Cc2c[nH]c3ccccc23)NC(=O)[C@@H]2CCCN2C1=O` (stereo partly shown) [AC-0005-054], the pKi [1] was 7.81, the pIC50 (Example 3) was 7.19 and the pKi (Example 3, Cheng-Prusoff) was 7.51. For the same compound, the pIC50 (Example 4, fifth table) was 7.48.

`CSCC[C@@H]1NC(=O)[C@H](CCCNC(=N)N)NC(=O)C(NC(=O)[C@H](CC(C)C)NC(=O)[C@H](Cc2ccc(O)cc2)NC(=O)[C@H](CC(N)=O)NC(C)=O)CCOCC(C(=O)N[C@@H](CCCCNC(=N)N)C(=O)N2CCC[C@H]2C(=O)NCCCCC(=O)NCCCCC(NC(=O)[C@@H]2CCCN2C(=O)[C@H](CCCCNC(=N)N)NC(=O)C2COCCC(NC(=O)[C@H](CC(C)C)NC(=O)[C@H](Cc3ccc(O)cc3)NC(=O)[C@H](CC(N)=O)NC(C)=O)C(=O)N[C@@H](CCCNC(=N)N)C(=O)N[C@@H](CCSC)C(=O)N3CCC[C@H]3C(=O)N[C@@H](Cc3ccc4ccccc4c3)C(=O)N[C@@H](C(C)C)C(=O)N2)C(N)=O)NC(=O)[C@H](C(C)C)NC(=O)[C@H](Cc2ccc3ccccc3c2)NC(=O)[C@@H]2CCCN2C1=O` (stereo partly shown) [AC-0005-055] was tested, and the pKi [1] was 8.32, the pKi [2] was 8.22 and the pIC50 (Example 3) was 7.96. It also gave a pKi (Example 3, Cheng-Prusoff) of 8.28, a pIC50 (Example 4, fifth table) of 7.99 and a pIC50 (Example 4, sixth table) of 7.90. It also gave a pKi (Example 4, sixth table) of 8.22.
